According to paper PMC12298827, “Subchronic Toxicities of Four Per- and Polyfluoroalkyl Substances (PFASs) by Oral Exposure in Sprague–Dawley Rats” (Toxics, 2025):

System: male and female Sprague–Dawley rats
Assay: 90-day subchronic oral gavage toxicity study
Assay type: in vivo, rat
Set-up: key to NOEL, absolute liver weight increase / LOEL, absolute liver weight increase / NOEL, relative kidney weight increase / LOEL, relative kidney weight increase / NOEL, absolute kidney weight increase / LOEL, absolute kidney weight increase / NOEL, relative liver weight increase / LOEL, relative liver weight increase: NR: no response, no statistically significant dose-dependent changes
Protocol: Subchronic (90-day) studies were performed in accordance with current U.S. EPA’s Toxic Substances Control Act Good Laboratory Practice (GLP) Standards, with the following two general exceptions to the GLP guidelines: Analysis of the dose formulations was conducted according to RTI-approved Standard Operating Procedures, and corn oil (the vehicle) was not characterized (certificate of analysis from the vendor is available in the appendices to the final reports). Male and female Sprague–Dawley rats (five dose levels plus a control, n = 10/sex/dose group, corn oil vehicle dose volume of 3 mL/kg; oral gavage) were used in these studies, and the rats were euthanized on SD 91. The dose levels for PFHI were 0, 12.5, 25, 50, 100, and 200 mg/kg-day. The dose levels for MHFPK were 0, 18.8, 37.5, 75, 150, and 300 mg/kg-day. The dose levels for PFNAC were 0, 0.1, 0.3, 1.0, 3.0, and 10 mg/kg-day for male rats and 0, 0.3, 1.0, 3.0, 10, and 30 mg/kg-day for female rats. For CTFPA, the dose levels were 0, 1.9, 3.8. 7.5, 15, and 30 mg/kg-day for male rats and 0, 6.3, 12.5, 25, 50, and 100 mg/kg-day for female rats. For each PFAS, three batches of dosing solution were prepared. The time between the batch preparation of the dosing solutions ranged between 29 and 39 days. Blood samples were collected from all the rats at termination for serum chemistry, hematology, coagulation, and the analysis of the parent PFAS chemical in the plasma. In vivo data collection and further detail on the endpoints examined postmortem are described below.
The rats were observed twice daily for morbidity and mortality throughout the study period. At least once prior to randomization to test groups and weekly thereafter, the rats were physically examined, and bodyweights were obtained. Feed consumption was quantified weekly starting on SD 1.
Neurotoxicity was evaluated using the functional observational battery (FOB) and measuring locomotor activity (LMA) 2–4 h post dosing on SDs 78–80 and 80–84, respectively. For both the 14- and 90-day studies, an ophthalmologic examination was conducted prior to randomization and near the end of the study, using indirect ophthalmoscopy and slit–lamp biomicroscopy (as needed) after the administration of a mydriatic solution.
Hematology, biochemistry, and coagulation endpoints were measured at the termination of the study. A Siemens Advia 2120i hematology analyzer (Siemens Healthineers, Erlangen, Germany) was used to measure (or calculate) the parameters related to the complete blood count, leukocyte differential count, and reticulocyte count. The hematology parameters are listed and described in Table 2. The prothrombin time […] and activated partial thromboplastin time (APTT) were measured using an Instrumentation Laboratory (Bedford, MA, USA) ACL Elite Pro coagulation analyzer (laser–nephelometric centrifugal method).
At necropsy, the rats were visually examined for external abnormalities and organ weights (absolute and relative to the BW and brain weight), which were recorded (paired organs weighed together). The tissues were preserved in 10% neutral buffered formalin (NBF), except for the ocular tissues, testes, and epididymides, which were preserved in modified Davidson’s fixative and later transferred to 10% NBF. Bone marrow smears were prepared from the femurs, and the slides were air-dried, fixed in methanol, stained, and stored at room temperature for possible future evaluation. The preserved tissues were embedded in paraffin, sectioned, stained with hematoxylin and eosin, and examined by a board-certified veterinary pathologist.
Statistical analysis was performed using Provantis™ Version 10 or greater (Instem LSS, Limited; Stone, Staffordshire, UK). Differences among the treatment groups compared to the control were evaluated using one-way analysis of variance (ANOVA) if the underlying assumptions of a normal distribution (Shapiro–Wilk test) and the homogeneity of the variance (Levene’s test) were satisfied. […]

In the case of `CC(=O)C(F)(F)C(F)(F)C(F)(F)F` [MHFPK, Methyl heptafluoropropyl ketone], the “Bodyweight (BW) and bodyweight gain” value (90-day, both sexes, all doses) is reported as “No changes in BW or BW gain over the course of the study”, the Clinical observations (90-day, both sexes, all doses) is reported as “None” and the Coagulation endpoints (90-day, both sexes, all doses) is reported as “Males at ≥37.5 mg/kg-day, from minimal to mild dose-dependent prolongations in PT; no effects in females”. The Feed consumption (90-day, both sexes, all doses) was “No changes in males; some statistically significant changes in females, not considered as compound related”, the Functional observational battery (90-day, both sexes, all doses) was “No changes” and the Gross lesions (90-day, both sexes, all doses) was “None considered as MHFPK related”. The Hematology (90-day, both sexes, all doses) was “From minimal to mild dose-dependent increases in MPV in both sexes at ≥18.8 mg/kg-day”, the Histopathology (90-day, both sexes, all doses) was “None considered as MHFPK related” and the Locomotor activity (90-day, both sexes, all doses) was “No effects”. For the same molecule, the Morbidity and mortality (90-day, both sexes, all doses) was “None”, the Ophthalmology (90-day, both sexes, all doses) was “No ocular lesions” and the Organ weight changes (90-day, both sexes, all doses) was “None considered as MHFPK related”. For the same molecule, the “LOEL, absolute kidney weight increase” value (female) was “NR”, the “LOEL, absolute liver weight increase” value (female) was “NR” and the “LOEL, relative kidney weight increase” value (female) was “NR”. For the same molecule, the “LOEL, relative liver weight increase” value (female) was “NR”, the “NOEL, absolute kidney weight increase” value (female) was “NR” and the “NOEL, absolute liver weight increase” value (female) was “NR”. The “NOEL, relative kidney weight increase” value (female) was “NR”, the “NOEL, relative liver weight increase” value (female) was “NR” and the “% BW Gain” value (female, 18.8 mg/kg-day) was 47.40%. For the same molecule, the “% Diff, % BW Gain” value (female, 18.8 mg/kg-day) was 25.52%, the “% Diff, Total BW change” value (female, 18.8 mg/kg-day) was 27.05% and the “% Diff, Total Food Consumed” value (female, 18.8 mg/kg-day) was 11.67%. For the same molecule, the A/G (female, 18.8 mg/kg-day) was 1.12±0.13 ratio, the ABEOS (female, 18.8 mg/kg-day) was 0.108±0.037 K/µL and the ABNEUT (female, 18.8 mg/kg-day) was 1.004±0.296 K/µL. The ABRETi (female, 18.8 mg/kg-day) was 195.85±38.05 10^9/L, the ALB (female, 18.8 mg/kg-day) was 4.26 ± 0.27 g/dL and the ALPi (female, 18.8 mg/kg-day) was 69.1±55.5 U/L. For the same molecule, the APTT (female, 18.8 mg/kg-day) was 16.80 s, the BUN (female, 18.8 mg/kg-day) was 15.5 ± 2.2 mg/dL and the CHOL (female, 18.8 mg/kg-day) was 100.6 ± 17.0 mg/dL. It also gave a GLOB (female, 18.8 mg/kg-day) of 3.82 ± 0.36 g/dL, a GLUC (female, 18.8 mg/kg-day) of 158.0 ± 18.9 mg/dL and an HCT (female, 18.8 mg/kg-day) of 46.27±2.37%. For the same molecule, the HGB (female, 18.8 mg/kg-day) was 14.58 ± 0.67 g/dL, the “Kidney Weight” value (female, 18.8 mg/kg-day) was 1.94 g and the “Kidney/Body Weight” value (female, 18.8 mg/kg-day) was 0.56%. For the same molecule, the “Kidney/Brain Weight” value (female, 18.8 mg/kg-day) was 96.5%, the “Liver Weight” value (female, 18.8 mg/kg-day) was 8.74 g and the “Liver/Body Weight” value (female, 18.8 mg/kg-day) was 2.51%. The “Liver/Brain Weight” value (female, 18.8 mg/kg-day) was 435%, the MPV (female, 18.8 mg/kg-day) was 8.22 ± 0.82 fL and the PT (female, 18.8 mg/kg-day) was 15.23 s. The RBC (female, 18.8 mg/kg-day) was 7.887±0.439 M/µL, the “Total BW change” value (female, 18.8 mg/kg-day) was 115.68 g and the “Total Food Consumed” value (female, 18.8 mg/kg-day) was 1629 g. The “% BW Gain” value (female, 37.5 mg/kg-day) was 44.49%, the “% Diff, % BW Gain” value (female, 37.5 mg/kg-day) was 17.83% and the “% Diff, Total BW change” value (female, 37.5 mg/kg-day) was 18.53%. The “% Diff, Total Food Consumed” value (female, 37.5 mg/kg-day) was 1.46%, the A/G (female, 37.5 mg/kg-day) was 1.05±0.08 ratio and the ABEOS (female, 37.5 mg/kg-day) was 0.102±0.040 K/µL. For the same molecule, the ABNEUT (female, 37.5 mg/kg-day) was 1.068±0.314 K/µL, the ABRETi (female, 37.5 mg/kg-day) was 190.80±35.78 10^9/L and the ALB (female, 37.5 mg/kg-day) was 4.17 ± 0.35 g/dL. The ALPi (female, 37.5 mg/kg-day) was 56.9±24.3 U/L, the APTT (female, 37.5 mg/kg-day) was 18.10 s and the BUN (female, 37.5 mg/kg-day) was 14.7 ± 2.4 mg/dL. For the same molecule, the CHOL (female, 37.5 mg/kg-day) was 106.5 ± 21.4 mg/dL, the GLOB (female, 37.5 mg/kg-day) was 3.99 ± 0.28 g/dL and the GLUC (female, 37.5 mg/kg-day) was 161.9 ± 28.0 mg/dL. The HCT (female, 37.5 mg/kg-day) was 46.13±1.42%, the HGB (female, 37.5 mg/kg-day) was 14.42 ± 0.61 g/dL and the “Kidney Weight” value (female, 37.5 mg/kg-day) was 1.84 g. The “Kidney/Body Weight” value (female, 37.5 mg/kg-day) was 0.55%, the “Kidney/Brain Weight” value (female, 37.5 mg/kg-day) was 91.4% and the “Liver Weight” value (female, 37.5 mg/kg-day) was 8.76 g. For the same molecule, the “Liver/Body Weight” value (female, 37.5 mg/kg-day) was 2.58%, the “Liver/Brain Weight” value (female, 37.5 mg/kg-day) was 433% and the MPV (female, 37.5 mg/kg-day) was 8.56 ± 0.67 fL. For the same molecule, the PT (female, 37.5 mg/kg-day) was 14.98 s, the RBC (female, 37.5 mg/kg-day) was 7.864±0.307 M/µL and the “Total BW change” value (female, 37.5 mg/kg-day) was 107.92 g. The “Total Food Consumed” value (female, 37.5 mg/kg-day) was 1480 g and the “% BW Gain” value (female, 75 mg/kg-day) was 39.38%.
